System: Express spring wheat
Test: Field trial plots with glyphosate on Express spring wheat; shikimic acid in whole above ground plant by water extraction and HPLC
Assay type: in vivo
Experimental: Field trial plots with glyphosate on Express spring wheat were established at three treatment levels, untreated control, 4 oz formulated/acre, and 14 oz formulated/acre. Field site studies were conducted in eastern Washington, near Kennewick, Wash. There were buffer zones around each treat level and control plot. The whole above ground plant was harvested at time zero, 5, 10, 15, and 20 days after application. The samples were cooled immediately and frozen within one hour. The samples were received from the field and stored in the freezer at <−10 C. At the time of application plants were 8-10 inches tall, after 20 days the control plants were 20-24 inches and beginning to head out.
Plant tissue was placed in an open container and dried at ca. 70 C overnight (14 to 16 hrs). Each sample was ground to pass through a 20 mesh screen. The ground sample was placed in a glass jar. Sealed samples may be stored at ≦−10 C for several months (the longest time tested). Approximately 150 mg of dry ground sample weight was placed into a screw cap bottle, 30 mL of DI water was added, and the bottle was capped and placed on a shaker overnight (14 to 16 hrs) at a minimum of 50 rpm. Extracts were filtered through a Whatman GF/A filter. For quantification, an aliquot was filtered (0.45 μm disposable) into an HPLC auto-sampler vial.
HPLC analysis was performed on a Perkin-Elmer ISS 200. Instrument conditions were as follows: column 250×4.6 mm ALTEX Ultrasphere 5 μm ODS (or equivalent);mobile phase (isocratic) 50 mM KH2PO4 solution adjusted to pH 2.4; flow rate 2 mL/min, detector 214 nm. Calibration curves consisted of 1, 5, 10, 50, 100 and 200 μg/mL standards, r^2 values were ≧0.998. Retention time was ca. 2.0 min.

## O=C(O)CNCP(=O)(O)O [glyphosate]
Higher treat rate 14 oz formulated/acre, day-5
  shikimic acid level, factor above normal: 6
Higher treat rate 14 oz formulated/acre, day-10
  shikimic acid level, factor above normal: 10
Higher treat rate 14 oz formulated/acre, through the study period of 20 days
  shikimic acid level relative to normal: remains elevated
Low treat rate 4 oz formulated/acre, day 20
  shikimic acid level relative to normal: within normal levels
Low treat rate 4 oz formulated/acre, day-5 sampling
  shikimic acid level, factor above normal: 4
Low treat rate 4 oz formulated/acre, day-10
  shikimic acid level, factor above normal: 2
Low treat rate 4 oz formulated/acre, day-15
  shikimic acid level relative to normal: nearly within normal range

From US20080058210A1, “Method of isolating shikimic acid from a plant” (priority 2006, published 2008)
